Columns and labels:
Type in all cases: cell-based
[1] = tested on: TC32 Ewing sarcoma cells, expressing EWS-FLI1; test: Growth inhibition assay, TC32 cells; conditions: for TC32 vs. PC3 / IC50: Table 1C; for TC32 vs. PC3: cellular selectivity; for IC50: read-out: IC50 TC-32; for EC50: Table 1D, read-out: TC-32 Mean EC50; for PC:TC32 (cellular selectivity): ratio of GI50 PC3 to TC32
Description: (§1) Growth inhibition assay to assess cytotoxicity in ETS vs non-ETS expressing cells. Cells were seeded in clear 96-well plates (VWR, Radnor, PA). Seeding densities were optimized for each cell line to support 5 days of linear growth. Following a 24 hours attachment period, cells in duplicate wells were treated with half-log increments of respective compounds (0 nM and 0.3 nM-10 μM). Working stocks were prepared from an initial 10 mM drug stock diluted in either 100% ethanol or dimethyl sulfoxide (DMSO). All wells contained a final concentration of 0.1% (v/v) respective organic solvent. Immediately following treatment, cell viability was measured for vehicle control (Day 0) wells. Cell viability was measured in the remaining wells after 72 hours of incubation with compound or vehicle control (Day 3).
(§2) Percent viability, relative to the initial cell seeding concentration, was calculated by ((TreatmentDay3−Vehicle ControlDay0)/(Vehicle ControlDay3−Vehicle ControlDay0))×100. Percent cell viability was plotted as a function of compound concentration (Log [M]) and the data were fit using a 3-parameter non-linear model with fixed Hill slope constant and 4-parameter non-linear model with variable Hill slope constant. The model with the best curve fit was used to estimate the GI50 in GraphPad Prism 7.0 software (GraphPad Software, La Jolla, CA). The 3-parameter equation used was Y=Bottom+(Top−Bottom)/(1+10[…]((X−Log[IC50]))). The 4-parameter equation used was Y=Bottom+(Top−Bottom)/(1+10[…]((Log[IC50]−X)*Hillslope)). Top and Bottom are plateaus in the units of the Y-axis (response). IC50 is the response (Y-axis) halfway between Top and Bottom plateaus.
(§3) All compounds were tested at least once in multi-well replicates and each experiment included one a control compound (i.e., MTM) to ensure the stable response of the cell lines. The selectivity index was estimated by determining the ratio of GI50 estimates between ETS fusion negative and ETS fusion positive cell lines.

[2] = tested on: PC3 Prostate Cancer Cells; test: Growth inhibition assay, PC3 cells; conditions: for IC50: Table 1C; for EC50: Table 1D
Description: as §1, §2, §3

[3] = tested on: G-401 (ATTC Cat. No., CRL-1441); Rhabdoid tumor of the kidney; test: Growth inhibition assay, G-401 cells; conditions: for EC50: Table 1D
Description: as §1, with “3). For viability measurements, 0.1 mM resazurin (Sigma, St. Louis, MO) was added to wells and following 3 hours of incubation at 37° C., fluorescence readings ([…]) were recorded using a SpectraMax M5 plate reader (Molecular Devices, Sunnyvale, CA).” for “3).”
as §2
as §3, with “GI50 values were determined by pooling all available experiments and reported with 95% confidence interval, calculated from GraphPad Prism 7.0 software curve fit. All” for “All”

[4] = tested on: A-204 (ATTC Cat. No., HTB-82); Rhabdomyosarcoma (embryonal); test: Growth inhibition assay, A-204 cells; conditions: for EC50: Table 1D
Description: as §1, with “3). For viability measurements, 0.1 mM resazurin (Sigma, St. Louis, MO) was added to wells and following 3 hours of incubation at 37° C., fluorescence readings ([…]) were recorded using a SpectraMax M5 plate reader (Molecular Devices, Sunnyvale, CA).” for “3).”
as §2
as §3, with “GI50 values were determined by pooling all available experiments and reported with 95% confidence interval, calculated from GraphPad Prism 7.0 software curve fit. All” for “All”

[5] = tested on: RH30 muscle rhabdomyosarcoma; test: Growth inhibition assay, RH30 cells; conditions: Table 1D
Description: as §1, with “3). For viability measurements, 0.1 mM resazurin (Sigma, St. Louis, MO) was added to wells and following 3 hours of incubation at 37° C., fluorescence readings ([…]) were recorded using a SpectraMax M5 plate reader (Molecular Devices, Sunnyvale, CA).” for “3).”
as §2
as §3, with “GI50 values were determined by pooling all available experiments and reported with 95% confidence interval, calculated from GraphPad Prism 7.0 software curve fit. All” for “All”

U-2 OS bone osteosarcoma = test: Growth inhibition assay, U-2 OS cells; conditions: Table 1D
Description: as §1, with “3). For viability measurements, 0.1 mM resazurin (Sigma, St. Louis, MO) was added to wells and following 3 hours of incubation at 37° C., fluorescence readings ([…]) were recorded using a SpectraMax M5 plate reader (Molecular Devices, Sunnyvale, CA).” for “3).”
as §2
as §3, with “GI50 values were determined by pooling all available experiments and reported with 95% confidence interval, calculated from GraphPad Prism 7.0 software curve fit. All” for “All”

Row | SMILES | EC50 [1] | EC50 [2] | PC:TC32 (cellular selectivity) [1] | other results
1 | COC(C(=NOCC(=O)N(C)C(Cc1cn(C)c2ccccc12)C(=O)N1CCOCC1)C(O)C(C)O)C1Cc2cc3cc(OC4CC(OC5CC(O)C(O)C(C)O5)C(O)C(C)O4)c(C)c(O)c3c(O)c2C(=O)C1OC1CC(OC2CC(OC3CC(C)(O)C(O)C(C)O3)C(O)C(C)O2)C(O)C(C)O1 (stereo not shown) [AK-B6] | 10.7 nM | 52.3 nM |  | TC32 vs. PC3 [1]: >3×; IC50 [1]: 32 to 120 nM; IC50 [2]: 150 to 370 nM
2 | COC(C(=NOCC(=O)NC(Cc1cn(C)c2ccccc12)C(=O)N1CCOCC1)C(O)C(C)O)C1Cc2cc3cc(OC4CC(OC5CC(O)C(O)C(C)O5)C(O)C(C)O4)c(C)c(O)c3c(O)c2C(=O)C1OC1CC(OC2CC(OC3CC(C)(O)C(O)C(C)O3)C(O)C(C)O2)C(O)C(C)O1 (stereo not shown) [AK-B11] | 49.8 nM | 666 nM |  | TC32 vs. PC3 [1]: >8×; IC50 [1]: 147 to 300 nM; IC50 [2]: 1600 to 2500 nM
3 | COC(C(=NOCC(=O)NC(Cc1c[nH]c2ccccc12)C(=O)N1CCOCC1)C(O)C(C)O)C1Cc2cc3cc(OC4CC(OC5CC(O)C(O)C(C)O5)C(O)C(C)O4)c(C)c(O)c3c(O)c2C(=O)C1OC1CC(OC2CC(OC3CC(C)(O)C(O)C(C)O3)C(O)C(C)O2)C(O)C(C)O1 (stereo not shown) [MTM102] | 162 nM | 1650 nM |  | TC32 vs. PC3 [1]: 17×; IC50 [1]: 156 nM; IC50 [2]: 2700 nM; IC50 ([3]; Table 1C): 514 nM; EC50 [3]: 591 nM; IC50 ([4]; Table 1C): 2300 nM; EC50 [4]: 2740 nM
4 | CCN(CC)C(=O)C(Cc1c[nH]c2ccccc12)NC(=O)CON=C(C(O)C(C)O)C(OC)C1Cc2cc3cc(OC4CC(OC5CC(O)C(O)C(C)O5)C(O)C(C)O4)c(C)c(O)c3c(O)c2C(=O)C1OC1CC(OC2CC(OC3CC(C)(O)C(O)C(C)O3)C(O)C(C)O2)C(O)C(C)O1 (stereo not shown) [MTM103] | 23.5 nM | 91.3 nM |  | EC50 [3]: 25.5 nM; EC50 [4]: 194 nM; EC50 [5]: 29.4 nM
5 | COC(C(=NOCC(=O)NC(Cc1c[nH]c2ccccc12)C(=O)N1CC(C)(C)C1)C(O)C(C)O)C1Cc2cc3cc(OC4CC(OC5CC(O)C(O)C(C)O5)C(O)C(C)O4)c(C)c(O)c3c(O)c2C(=O)C1OC1CC(OC2CC(OC3CC(C)(O)C(O)C(C)O3)C(O)C(C)O2)C(O)C(C)O1 (stereo not shown) [MTM105] | 29.4 nM | 177 nM |  | EC50 [3]: 23.4 nM; EC50 [5]: 45.9 nM; EC50 (U-2 OS bone osteosarcoma): > 10000 nM
6 | CCOC(=O)[C@H](Cc1c[nH]c2ccccc12)NC(=O)CO/N=C(\[C@@H](O)[C@@H](C)O)[C@@H](OC)[C@@H]1Cc2cc3cc(O[C@H]4C[C@@H](O[C@H]5C[C@@H](O)[C@H](O)C(C)O5)[C@H](O)C(C)O4)c(C)c(O)c3c(O)c2C(=O)[C@H]1O[C@H]1C[C@@H](O[C@H]2C[C@@H](O[C@H]3C[C@](C)(O)[C@H](O)C(C)O3)[C@H](O)C(C)O2)[C@H](O)C(C)O1 (stereo partly shown) [MTM (41)] | 266 nM | 4060 nM | 13.5 | 
7 | CO[C@H](/C(=N/OCC(=O)N[C@@H](Cc1c[nH]c2ccccc12)C(N)=O)[C@@H](O)[C@@H](C)O)[C@@H]1Cc2cc3cc(O[C@H]4C[C@@H](O[C@H]5C[C@@H](O)[C@H](O)C(C)O5)[C@H](O)C(C)O4)c(C)c(O)c3c(O)c2C(=O)[C@H]1O[C@H]1C[C@@H](O[C@H]2C[C@@H](O[C@H]3C[C@](C)(O)[C@H](O)C(C)O3)[C@H](O)C(C)O2)[C@H](O)C(C)O1 (stereo partly shown) [MTM (42)] | 304 nM | 3550 nM | 8.5 | 
8 | CO[C@H](/C(=N/OCC(=O)N[C@@H](Cc1c[nH]c2ccccc12)C(=O)N(C)C)[C@@H](O)[C@@H](C)O)[C@@H]1Cc2cc3cc(O[C@H]4C[C@@H](O[C@H]5C[C@@H](O)[C@H](O)C(C)O5)[C@H](O)C(C)O4)c(C)c(O)c3c(O)c2C(=O)[C@H]1O[C@H]1C[C@@H](O[C@H]2C[C@@H](O[C@H]3C[C@](C)(O)[C@H](O)C(C)O3)[C@H](O)C(C)O2)[C@H](O)C(C)O1 (stereo partly shown) [MTM (44)] | 84.5 nM | > 1470 nM | 35 | 
9 | CO[C@H](/C(=N/OCC(=O)N[C@@H](Cc1c[nH]c2ccccc12)C(=O)N(C)OC)[C@@H](O)[C@@H](C)O)[C@@H]1Cc2cc3cc(O[C@H]4C[C@@H](O[C@H]5C[C@@H](O)[C@H](O)C(C)O5)[C@H](O)C(C)O4)c(C)c(O)c3c(O)c2C(=O)[C@H]1O[C@H]1C[C@@H](O[C@H]2C[C@@H](O[C@H]3C[C@](C)(O)[C@H](O)C(C)O3)[C@H](O)C(C)O2)[C@H](O)C(C)O1 (stereo partly shown) [MTM (54)] | 67 nM | 437 nM | 1.7 | 
10 | CO[C@H](/C(=N/OCC(=O)N[C@@H](Cc1c[nH]c2ccccc12)c1nc(C)co1)[C@@H](O)[C@@H](C)O)[C@@H]1Cc2cc3cc(O[C@H]4C[C@@H](O[C@H]5C[C@@H](O)[C@H](O)C(C)O5)[C@H](O)C(C)O4)c(C)c(O)c3c(O)c2C(=O)[C@H]1O[C@H]1C[C@@H](O[C@H]2C[C@@H](O[C@H]3C[C@](C)(O)[C@H](O)C(C)O3)[C@H](O)C(C)O2)[C@H](O)C(C)O1 (stereo partly shown) [MTM (57)] | 74 nM | > 1680 nM | 3.3 | EC50 [3]: 712 nM; EC50 [4]: 3180 nM; EC50 (U-2 OS bone osteosarcoma): > 10000 nM
11 | CO[C@H](/C(=N/OCC(=O)N[C@H](CO)Cc1c[nH]c2ccccc12)[C@@H](O)[C@@H](C)O)[C@@H]1Cc2cc3cc(O[C@H]4C[C@@H](O[C@H]5C[C@@H](O)[C@H](O)C(C)O5)[C@H](O)C(C)O4)c(C)c(O)c3c(O)c2C(=O)[C@H]1O[C@H]1C[C@@H](O[C@H]2C[C@@H](O[C@H]3C[C@](C)(O)[C@H](O)C(C)O3)[C@H](O)C(C)O2)[C@H](O)C(C)O1 (stereo partly shown) [MTM (59)] | 84.7 nM | 313 nM | 4.8 | 
12 | COC(C(=NOCC(=O)Nc1ccc2[nH]cnc2c1)C(O)C(C)O)C1Cc2cc3cc(OC4CC(OC5CC(O)C(O)C(C)O5)C(O)C(C)O4)c(C)c(O)c3c(O)c2C(=O)C1OC1CC(OC2CC(OC3CC(C)(O)C(O)C(C)O3)C(O)C(C)O2)C(O)C(C)O1 (stereo not shown) [MTM (71)] |  |  | 3.2 | 
13 | COC(C(=NOCC(=O)Nc1ccc2[nH]c(C)cc2c1)C(O)C(C)O)C1Cc2cc3cc(OC4CC(OC5CC(O)C(O)C(C)O5)C(O)C(C)O4)c(C)c(O)c3c(O)c2C(=O)C1OC1CC(OC2CC(OC3CC(C)(O)C(O)C(C)O3)C(O)C(C)O2)C(O)C(C)O1 (stereo not shown) [MTM (72)] |  |  | 20.9 | 
14 | COC(C(=NOCC(=O)Nc1ccc2ncccc2c1)C(O)C(C)O)C1Cc2cc3cc(OC4CC(OC5CC(O)C(O)C(C)O5)C(O)C(C)O4)c(C)c(O)c3c(O)c2C(=O)C1OC1CC(OC2CC(OC3CC(C)(O)C(O)C(C)O3)C(O)C(C)O2)C(O)C(C)O1 (stereo not shown) [MTM (74)] |  |  | 66.6 | 
15 | COC(C(=NOCC(=O)Nc1ccc2cnccc2c1)C(O)C(C)O)C1Cc2cc3cc(OC4CC(OC5CC(O)C(O)C(C)O5)C(O)C(C)O4)c(C)c(O)c3c(O)c2C(=O)C1OC1CC(OC2CC(OC3CC(C)(O)C(O)C(C)O3)C(O)C(C)O2)C(O)C(C)O1 (stereo not shown) [MTM (75)] |  |  | 118 | 
16 | COC(C(=NOCC(=O)Nc1cccc2cc[nH]c12)C(O)C(C)O)C1Cc2cc3cc(OC4CC(OC5CC(O)C(O)C(C)O5)C(O)C(C)O4)c(C)c(O)c3c(O)c2C(=O)C1OC1CC(OC2CC(OC3CC(C)(O)C(O)C(C)O3)C(O)C(C)O2)C(O)C(C)O1 (stereo not shown) [MTMox (73)] |  |  | 5.9 | 

— patent publication US12486300B2, “Mithramycin oxime derivatives having increased selectivity and anti-cancer activity” (University of Kentucky Research Foundation, priority 2018, dated 2025)
